The values below are quoted from earlier work in patent US20150093449A1, “Method of Using Silicon Substituted Phosphates to Improve Healing of Bone and Soft Tissue” (priority 2009, published 2015).

The test system of the data set is staph epidermis.

In the case of silicon, the glycoprotein slime formation entry was “inhibits”.
